Measurements from patent US20230111310A1, “CARBOXYLIC ACID DERIVATIVE-SUBSTITUTED IMINO ARYL COMPOUND, PREPARATION METHOD THEREFOR, HERBICIDAL COMPOSITION AND USE THEREOF” (Qingdao Kingagroot Chemical Compound Co., Ltd., priority 2020, published 2023).

Key:
Assay in all cases: Weeding effect in post-emergence stage
Format in all cases: in vivo
Echinochloa crusgalli = conditions: for Weeding effect in post-emergence stage, Echinochloa crusgalli: level of fresh weight growth control rate; for Weeding effect in post-emergence stage, Echinochloa crusgalli (level): fresh weight control rate level
Outline: (§1)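 Doses of 500, 250, 125, 60, 30, 15 and 7.5 g/ha, with methyl oleate synergist (1.5 liter/ha) and Tween 80 from acetone solution, applied by spray tower post-emergence (2–3 leaf stage). Weed control scored after 3 further greenhouse weeks, averaged over triplicates.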

Abutilon theophrasti = conditions: for Weeding effect in post-emergence stage, Abutilon theophrasti: level of fresh weight growth control rate; for Weeding effect in post-emergence stage, Abutilon theophrasti (level): fresh weight control rate level
Outline: as §1

Alopecurus japonicus = conditions: for Weeding effect in post-emergence stage, Alopecurus japonicus: level of fresh weight growth control rate; for Weeding effect in post-emergence stage, Alopecurus japonicus (level): fresh weight control rate level
Outline: as §1

Setaria viridis = conditions: for Weeding effect in post-emergence stage, Setaria viridis: level of fresh weight growth control rate; for Weeding effect in post-emergence stage, Setaria viridis (level): fresh weight control rate level
Outline: as §1

Eleusine indica = conditions: for Weeding effect in post-emergence stage, Eleusine indica: level of fresh weight growth control rate; for Weeding effect in post-emergence stage, Eleusine indica (level): fresh weight control rate level
Outline: as §1

Digitaria sanguinalis = conditions: for Weeding effect in post-emergence stage, Digitaria sanguinalis: level of fresh weight growth control rate; for Weeding effect in post-emergence stage, Digitaria sanguinalis (level): fresh weight control rate level
Outline: as §1

## CCOC(=O)OC(C)OC(=O)C(C)O/N=C/c1cc(-n2c(=O)cc(C(F)(F)F)n(C)c2=O)c(F)cc1Cl (stereo not drawn) [Compound 246]
Echinochloa crusgalli; Dose 15 g/ha
  Weeding effect in post-emergence stage, Echinochloa crusgalli: 5 (Level 5: growth control rate is above 85%)
Abutilon theophrasti; Dose 15 g/ha
  Weeding effect in post-emergence stage, Abutilon theophrasti: 5 (Level 5: growth control rate is above 85%)
Alopecurus japonicus; Dose 15 g/ha
  Weeding effect in post-emergence stage, Alopecurus japonicus: 5 (Level 5: growth control rate is above 85%)
Setaria viridis; Dose 15 g/ha
  Weeding effect in post-emergence stage, Setaria viridis: 5 (Level 5: growth control rate is above 85%)
Eleusine indica; Dose 15 g/ha
  Weeding effect in post-emergence stage, Eleusine indica: 5 (Level 5: growth control rate is above 85%)
Digitaria sanguinalis; Dose 15 g/ha
  Weeding effect in post-emergence stage, Digitaria sanguinalis: 5 (Level 5: growth control rate is above 85%)

## CCOC(=O)CO/N=C/c1cccc(-n2c(=O)cc(C(F)(F)F)[nH]c2=O)c1 [Control compound F, reference compound]
Echinochloa crusgalli; Dose 60 g/ha
  Weeding effect in post-emergence stage, Echinochloa crusgalli (level): 0 (Level 0: growth control rate is less than 5%)
Abutilon theophrasti; Dose 60 g/ha
  Weeding effect in post-emergence stage, Abutilon theophrasti (level): 2 (Level 2: growth control rate is greater than or equal to 20% and less than 40%)
Alopecurus japonicus; Dose 60 g/ha
  Weeding effect in post-emergence stage, Alopecurus japonicus (level): 0 (Level 0: growth control rate is less than 5%)
Setaria viridis; Dose 60 g/ha
  Weeding effect in post-emergence stage, Setaria viridis (level): 1 (Level 1: growth control rate is greater than or equal to 5% and less than 20%)
Eleusine indica; Dose 60 g/ha
  Weeding effect in post-emergence stage, Eleusine indica (level): 1 (Level 1: growth control rate is greater than or equal to 5% and less than 20%)
Digitaria sanguinalis; Dose 60 g/ha
  Weeding effect in post-emergence stage, Digitaria sanguinalis (level): 1 (Level 1: growth control rate is greater than or equal to 5% and less than 20%)

## C/C(Cl)=C/COC(=O)[C@@H](C)O/N=C/c1cc(-n2c(=O)cc(C(F)(F)F)n(C)c2=O)c(F)cc1Cl [500(R)]
Echinochloa crusgalli; Dose 15 g/ha
  Weeding effect in post-emergence stage, Echinochloa crusgalli (level): 5 (Level 5: growth control rate is above 85%)
Abutilon theophrasti; Dose 15 g/ha
  Weeding effect in post-emergence stage, Abutilon theophrasti (level): 5 (Level 5: growth control rate is above 85%)
Alopecurus japonicus; Dose 15 g/ha
  Weeding effect in post-emergence stage, Alopecurus japonicus (level): 5 (Level 5: growth control rate is above 85%)
Setaria viridis; Dose 15 g/ha
  Weeding effect in post-emergence stage, Setaria viridis (level): 5 (Level 5: growth control rate is above 85%)
Eleusine indica; Dose 15 g/ha
  Weeding effect in post-emergence stage, Eleusine indica (level): 5 (Level 5: growth control rate is above 85%)
Digitaria sanguinalis; Dose 15 g/ha
  Weeding effect in post-emergence stage, Digitaria sanguinalis (level): 5 (Level 5: growth control rate is above 85%)

## CCCOC(=O)OC(=O)C(C)O/N=C/c1cc(-n2c(=O)cc(C(F)(F)F)n(C)c2=O)c(F)cc1Cl (stereo not drawn) [Compound 236]
Echinochloa crusgalli; Dose 60 g/ha
  Weeding effect in post-emergence stage, Echinochloa crusgalli: 5 (Level 5: growth control rate is above 85%)
Abutilon theophrasti; Dose 60 g/ha
  Weeding effect in post-emergence stage, Abutilon theophrasti: 5 (Level 5: growth control rate is above 85%)
Alopecurus japonicus; Dose 60 g/ha
  Weeding effect in post-emergence stage, Alopecurus japonicus: 5 (Level 5: growth control rate is above 85%)
Setaria viridis; Dose 60 g/ha
  Weeding effect in post-emergence stage, Setaria viridis: 5 (Level 5: growth control rate is above 85%)
Eleusine indica; Dose 60 g/ha
  Weeding effect in post-emergence stage, Eleusine indica: 5 (Level 5: growth control rate is above 85%)
Digitaria sanguinalis; Dose 60 g/ha
  Weeding effect in post-emergence stage, Digitaria sanguinalis: 5 (Level 5: growth control rate is above 85%)

## COC(=O)[C@@H](C)O/N=C/c1cc(-n2c(=S)cc(C(F)(F)F)n(C)c2=S)c(F)cc1C#N [390(R)]
Echinochloa crusgalli; Dose 15 g/ha
  Weeding effect in post-emergence stage, Echinochloa crusgalli (level): 5 (Level 5: growth control rate is above 85%)
Abutilon theophrasti; Dose 15 g/ha
  Weeding effect in post-emergence stage, Abutilon theophrasti (level): 5 (Level 5: growth control rate is above 85%)
Alopecurus japonicus; Dose 15 g/ha
  Weeding effect in post-emergence stage, Alopecurus japonicus (level): 5 (Level 5: growth control rate is above 85%)
Setaria viridis; Dose 15 g/ha
  Weeding effect in post-emergence stage, Setaria viridis (level): 5 (Level 5: growth control rate is above 85%)
Eleusine indica; Dose 15 g/ha
  Weeding effect in post-emergence stage, Eleusine indica (level): 5 (Level 5: growth control rate is above 85%)
Digitaria sanguinalis; Dose 15 g/ha
  Weeding effect in post-emergence stage, Digitaria sanguinalis (level): 5 (Level 5: growth control rate is above 85%)

## CC(O/N=C/c1cc(-n2c(=O)cc(C(F)(F)F)n(C)c2=O)c(F)cc1Cl)C(=O)ON=C1CCCC1 (stereo not drawn) [Compound 258]
Echinochloa crusgalli; Dose 15 g/ha
  Weeding effect in post-emergence stage, Echinochloa crusgalli: 5 (Level 5: growth control rate is above 85%)
Abutilon theophrasti; Dose 15 g/ha
  Weeding effect in post-emergence stage, Abutilon theophrasti: 5 (Level 5: growth control rate is above 85%)
Alopecurus japonicus; Dose 15 g/ha
  Weeding effect in post-emergence stage, Alopecurus japonicus: 4 (Level 4: growth control rate is greater than or equal to 60% and less than 85%)
Setaria viridis; Dose 15 g/ha
  Weeding effect in post-emergence stage, Setaria viridis: 5 (Level 5: growth control rate is above 85%)
Eleusine indica; Dose 15 g/ha
  Weeding effect in post-emergence stage, Eleusine indica: 5 (Level 5: growth control rate is above 85%)
Digitaria sanguinalis; Dose 15 g/ha
  Weeding effect in post-emergence stage, Digitaria sanguinalis: 5 (Level 5: growth control rate is above 85%)

## COC(=O)C(C)O/N=C/c1cc(-n2c(=S)cc(C(F)(F)F)n(C)c2=S)c(F)cc1C(F)(F)F (racemic) [Compound 392]
Echinochloa crusgalli; Dose 60 g/ha
  Weeding effect in post-emergence stage, Echinochloa crusgalli (level): 5 (Level 5: growth control rate is above 85%)
Abutilon theophrasti; Dose 60 g/ha
  Weeding effect in post-emergence stage, Abutilon theophrasti (level): 5 (Level 5: growth control rate is above 85%)
Alopecurus japonicus; Dose 60 g/ha
  Weeding effect in post-emergence stage, Alopecurus japonicus (level): 5 (Level 5: growth control rate is above 85%)
Setaria viridis; Dose 60 g/ha
  Weeding effect in post-emergence stage, Setaria viridis (level): 5 (Level 5: growth control rate is above 85%)
Eleusine indica; Dose 60 g/ha
  Weeding effect in post-emergence stage, Eleusine indica (level): 5 (Level 5: growth control rate is above 85%)
Digitaria sanguinalis; Dose 60 g/ha
  Weeding effect in post-emergence stage, Digitaria sanguinalis (level): 5 (Level 5: growth control rate is above 85%)
